Assay results: ChEMBL document CHEMBL1201862, “PubChem BioAssay data set” (2004)
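Compound exposure: 48 hours, 5 concentrations, 96-well plates. GI50: concentration for 50% inhibition of growth.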 Activity calls are given as the source filed them. Rule as the data show it: active = GI50 up to about 1.1 µM and inactive = higher.

Legend:
Test in all cases: NCI-60 cell line screen, 48 h
[1] = system: DMS-273
[2] = system: NCI-H23
[3] = system: EKVX
[4] = system: NCI-H226
[5] = system: SNB-19
[6] = system: K562
[7] = system: HOP-18
[8] = system: HCT-116
[9] = system: SN12C
[10] = system: A498
[11] = system: NCI/ADR-RES
[12] = system: DMS-114
[13] = system: COLO 205
[14] = system: RPMI-8226
[15] = system: SF-268
[16] = system: OVCAR-8
[17] = system: MCF7
[18] = system: CAKI-1
[19] = system: SK-MEL-5
[20] = system: OVCAR-3
[21] = system: HOP-62
[22] = system: SNB-75
[23] = system: HOP-92
[24] = system: SNB-78
[25] = system: UACC-62
[26] = system: SK-OV-3
[27] = system: A549
[28] = system: MOLT-4
[29] = system: XF498
[30] = system: RXF 393
[31] = system: HCC 2998
[32] = system: SF-295
[33] = system: OVCAR-5
[34] = system: SW-620
[35] = system: CCRF-CEM
[36] = system: Malme-3M
[37] = system: UACC-257
[38] = system: UO-31
[39] = system: NCI-H460
[40] = system: OVCAR-4
[41] = system: SK-MEL-2
[42] = system: KM12
[43] = system: SK-MEL-28
[44] = system: IGROV-1
[45] = system: M19-MEL
[46] = system: HT-29
[47] = system: NCI-H522
[48] = system: U-251
[49] = system: SF-539
[50] = system: HCT-15
[51] = system: LOX IMVI
[52] = system: DLD-1

## Cc1ccc(C(=O)Nc2ncn(C3CC(O)C(CO)O3)c(=O)n2)cc1 (configuration not stated)
[1]
  GI50: > 100 µM (inactive)
[2]
  GI50: > 100 µM (inactive)
[3]
  GI50: > 100 µM (inactive)
[4]
  GI50: > 100 µM (inactive)
[5]
  GI50: 12.2 µM (inactive)
[6]
  GI50: > 100 µM (inactive)
[7]
  GI50: > 68.2 µM (inactive)
[8]
  GI50: > 100 µM (inactive)
[9]
  GI50: > 100 µM (inactive)
[10]
  GI50: > 100 µM (inactive)
[11]
  GI50: > 100 µM (inactive)
[12]
  GI50: > 100 µM (inactive)
[13]
  GI50: > 100 µM (inactive)
[14]
  GI50: > 45.9 µM (inactive)
[15]
  GI50: > 100 µM (inactive)
[16]
  GI50: > 100 µM (inactive)
[17]
  GI50: > 100 µM (inactive)
[18]
  GI50: > 100 µM (inactive)
[19]
  GI50: > 100 µM (inactive)
[20]
  GI50: > 33.3 µM (inactive)
[21]
  GI50: > 100 µM (inactive)
[22]
  GI50: > 52.6 µM (inactive)
[23]
  GI50: > 100 µM (inactive)
[24]
  GI50: > 65.5 µM (inactive)
[25]
  GI50: > 100 µM (inactive)
[26]
  GI50: > 100 µM (inactive)
[27]
  GI50: > 100 µM (inactive)
[28]
  GI50: > 29.6 µM (inactive)
[29]
  GI50: > 100 µM (inactive)
[30]
  GI50: > 100 µM (inactive)
[31]
  GI50: > 100 µM (inactive)
[32]
  GI50: > 100 µM (inactive)
[33]
  GI50: > 100 µM (inactive)
[34]
  GI50: > 100 µM (inactive)
[35]
  GI50: > 100 µM (inactive)
[36]
  GI50: > 100 µM (inactive)
[37]
  GI50: > 100 µM (inactive)
[38]
  GI50: > 100 µM (inactive)
[39]
  GI50: > 100 µM (inactive)
[40]
  GI50: > 100 µM (inactive)
[41]
  GI50: > 100 µM (inactive)
[42]
  GI50: > 100 µM (inactive)
[43]
  GI50: > 100 µM (inactive)
[44]
  GI50: > 100 µM (inactive)
[45]
  GI50: > 100 µM (inactive)
[46]
  GI50: > 100 µM (inactive)
[47]
  GI50: > 100 µM (inactive)
[48]
  GI50: > 100 µM (inactive)
[49]
  GI50: > 100 µM (inactive)
[50]
  GI50: > 100 µM
[51]
  GI50: > 100 µM (inactive)
[52]
  GI50: > 100 µM (inactive)
